Measurements from patent US7671056B2, “Piperazine-piperidine antagonists and agonists of the 5-HT1A receptor” (Wyeth LLC, priority 2005, dated 2010).
Where two headings read alike, the source gives them in different places.

Key:
human 5-HT1A receptor [1] = target: T1, human 5-HT1A receptor (Homo sapiens, UniProt P08908); experiment: Radioligand binding with [3H]8-OH-DPAT on membranes of 5-HT1A.CHO cells
T1 construct: expressed in transfected cells
T1 sequence (P08908 1-422): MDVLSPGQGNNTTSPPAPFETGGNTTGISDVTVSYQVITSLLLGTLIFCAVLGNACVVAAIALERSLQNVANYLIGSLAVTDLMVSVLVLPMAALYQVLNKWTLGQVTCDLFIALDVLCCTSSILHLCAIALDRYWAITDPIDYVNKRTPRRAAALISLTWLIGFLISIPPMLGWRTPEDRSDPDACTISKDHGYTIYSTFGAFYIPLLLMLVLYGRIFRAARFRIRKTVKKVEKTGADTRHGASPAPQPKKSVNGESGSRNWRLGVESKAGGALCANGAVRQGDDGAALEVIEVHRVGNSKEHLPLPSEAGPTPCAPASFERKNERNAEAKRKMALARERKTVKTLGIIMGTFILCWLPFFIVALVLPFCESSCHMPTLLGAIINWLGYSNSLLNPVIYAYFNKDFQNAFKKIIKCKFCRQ
Experimental: The PCR cloning of the human 5-HT1A receptor subtype from a human genomic library has been described previously (Chanda et al., Mol. Pharmacol., 43:516 (1993)). A stable Chinese hamster ovary cell line expressing the human 5-HT1A receptor subtype (5-HT1A.CHO cells) was employed throughout this study. Cells were maintained in DMEM supplemented with 10% fetal calf serum, non-essential amino acids and penicillin/streptomycin. Radioligand binding assays were performed as described in Dunlop, J. et al., J. Pharmacol. and Toxicol. Methods 40: 47-55 (1998), which is incorporated by reference. Cells were grown to 95-100% confluency as a monolayer before membranes were harvested for binding studies. Cells were gently scraped from the culture plates, transferred to centrifuge tubes, and washed twice by centrifugation (2000 rpm for 10 min., 4° C.) in buffer (50 mM Tris; pH 7.5). The resulting pellets were aliquoted and placed at −80° C. On the day of assay, the cells were thawed on ice, and resuspended in buffer. Studies were conducted using [^3H]8-OH-DPAT as the radioligand. The binding assay was performed in 96 well microtiter plates in a final total volume of 250 μL of buffer. Competition experiments were performed by using seven different concentrations of unlabelled drug and a final ligand concentration of 1.5 nM. Non-specific binding was determined in the presence of 10 μM 5HT. Saturation analysis was conducted by using [^3H]8-OH-DPAT at concentrations ranging from 0.3-30 nM. Following a 30 minute incubation at room temperature, the reaction was terminated by the addition of ice cold buffer and rapid filtration using a M-96 Brandel Cell Harvester (Gaithersburg, Md.) through a GF/B filter presoaked for 30 minutes in 0.5% polyethyleneimine. Table 1 provides Ki values for the tested compounds.

human 5-HT1A receptor [2] = target: T1, human 5-HT1A receptor; experiment: cAMP measurements, antagonist mode: block of 8-OH-DPAT-induced inhibition of forskolin-stimulated cAMP; assay type: cell-based
Experimental: The PCR cloning of the human 5-HT1A receptor subtype from a human genomic library has been described previously (Chanda et al., Mol. Pharmacol., 43:516 (1993)). A stable Chinese hamster ovary cell line expressing the human 5-HT1A receptor subtype (5-HT1A.CHO cells) was employed throughout this study. Cells were maintained in DMEM supplemented with 10% fetal calf serum, non-essential amino acids and penicillin/streptomycin. Measurements were performed as described in Dunlop, J. et al., supra. Assays were performed by incubating the cells with DMEM containing 25 mM HEPES, 5 mM theophylline and 10 μM pargyline for a period of 20 minutes at 37° C. […] The reaction was terminated by removal of the media and addition of 0.5 ml ice cold assay buffer. Plates were stored at −20° C. prior to assessment of cAMP formation by a cAMP SPA assay (Amersham). Compounds of the invention were tested according to the protocol described. […] Compounds having 5-HT1A antagonist activity show no effect on forskolin-induced increases in cAMP levels on their own, but block the 8-OH-DPAT-induced inhibition of forskolin-stimulated increases in cAMP levels. Results are required as IC50 values (Table 1, “Antagonist Activity IC50”)

human 5-HT1A receptor [3] = target: T1, human 5-HT1A receptor; experiment: cAMP measurements, agonist mode: inhibition of forskolin-induced increase in cAMP; assay type: cell-based; conditions: forskolin 1 uM, 5-HT1A.CHO cells
Experimental: The PCR cloning of the human 5-HT1A receptor subtype from a human genomic library has been described previously (Chanda et al., Mol. Pharmacol., 43:516 (1993)). A stable Chinese hamster ovary cell line expressing the human 5-HT1A receptor subtype (5-HT1A.CHO cells) was employed throughout this study. Cells were maintained in DMEM supplemented with 10% fetal calf serum, non-essential amino acids and penicillin/streptomycin.
Measurements were performed as described in Dunlop, J. et al., supra. Assays were performed by incubating the cells with DMEM containing 25 mM HEPES, 5 mM theophylline and 10 μM pargyline for a period of 20 minutes at 37° C. Functional activity was assessed by treating the cells with forskolin (1 uM final concentration) followed immediately by test compound (6 different concentrations) for an additional 10 minutes at 37° C. In separate experiments, 6 concentrations of antagonist were preincubated for 20 min prior to the addition of 10 nM 8-OH-DPAT and forskolin. The reaction was terminated by removal of the media and addition of 0.5 ml ice cold assay buffer. Plates were stored at −20° C. prior to assessment of cAMP formation by a cAMP SPA assay (Amersham). […]

[4] = [3H]8-OH-DPAT 1.5 nM, 5-HT1A.CHO cell membranes, read-out: 5-HT1A Affinity Ki
[5] = 10 nM 8-OH-DPAT and forskolin, 5-HT1A.CHO cells, read-out: Antagonist Activity IC50

Row | Compound | Ki (human 5-HT1A receptor [1]; [4]) | IC50 (human 5-HT1A receptor [2]; [5]) | EC50 (human 5-HT1A receptor [3]) | IC50 (human 5-HT1A receptor [2]) | Ki (human 5-HT1A receptor [1])
1 | Fc1ccc2occ(N3CCN(C4CCN(c5ccc(F)c6cccnc56)CC4)CC3)c2c1 [F, 5-fluoro-8-{4-[4-(5-fluoro-1-benzofuran-3-yl)-1-piperazinyl]-1-piperidinyl}quinoline] | 1.69 nM | 10.8 nM |  |  | 
2 | Fc1cc(N2CCN(C3CCN(c4ccc5cccnc5c4F)CC3)CC2)c2ncccc2c1 [K, 6-Fluoro-8-{4-[1-(8-fluoroquinolin-7-yl)piperidin-4-yl]piperazin-1-yl}quinoline] | 0.27 nM |  | 0.83 nM |  | 
3 | COc1cc(N2CCN(C3CCN(c4ccc(F)c5cccnc45)CC3)CC2)c2ncccc2c1 [P, 5-Fluoro-8-(4-(4-(6-methoxyquinolin-8-yl)piperazin-1-yl)piperidin-1-yl)-quinoline] |  | 3.7 nM |  |  | 
4 | Clc1cc(N2CCC(N3CCN(c4coc5ccccc45)CC3)CC2)c2ncccc2c1 [Example 16, 8-{4-[4-(1-Benzofuran-3-yl)-1-piperazinyl]-1-piperidinyl}-6-chloroquinoline] | 148 nM | 1080 nM |  |  | 
5 | COc1cc(N2CCN(C3CCN(Cc4cccc5cccnc45)CC3)CC2)c2ncccc2c1 [M, 6-Methoxy-8-{4-[1-(quinolin-8-ylmethyl)piperidin-4-yl]piperazin-1-yl}quinoline] | 75.7 nM | 176 nM |  |  | 
6 | COc1cc(N2CCN(C3CCN(c4c(F)ccc5cccnc45)CC3)CC2)c2ncccc2c1 [J, 8-{4-[1-(7-Fluoroquinolin-8-yl)piperidin-4-yl]piperazin-1-yl}-6-methoxyquinoline] | 0.61 nM | 9.95 nM |  |  | 
7 | c1cnc2c(N3CCC(N4CCN(c5cccc6cccnc56)CC4)CC3)cccc2c1 [Example 3, 8-{4-[1-(8-quinolinyl)-4-piperidinyl]-1-piperazinyl}quinoline] | 0.4 nM |  | 10 nM |  | 
8 | Fc1ccc(N2CCN(C3CCN(c4cccc5cccnc45)CC3)CC2)c2ncccc12 [Example 15] | 0.15 nM | 23.5 nM |  |  | 
9 | COc1ccccc1N1CCN(C2CCN(c3noc4ccccc34)CC2)CC1 [H, 3-{4-[4-(2-methoxyphenyl)-1-piperazinyl]-1-piperidinyl}-1,2-benzisoxazole] | 1.45 nM |  | 2.53 nM |  | 
10 | COc1cc(N2CCN(C3CCN(c4cccc5cc(C(F)(F)F)cnc45)CC3)CC2)c2ncccc2c1 [L, 8-{4-[4-(6-Methoxyquinolin-8-yl)piperazin-1-yl]piperidin-1-yl}-3-(trifluoromethyl)quinoline] | 1.2 nM |  | 29.5 nM |  | 
11 | COc1ccccc1N1CCN(C2CCN(c3csc4ccccc34)CC2)CC1 [G, 1-[1-(1-benzothien-3-yl)-4-piperidinyl]-4-(2-methoxyphenyl)piperazine] | 26.7 nM |  | 22 nM |  | 
12 | Clc1ccc(N2CCN(C3CCN(c4cccc5cccnc45)CC3)CC2)c2ncccc12 [Example 8, 5-chloro-8-{4-[1-(8-quinolinyl)-4-piperidinyl]-1-piperazinyl}quinoline] | 0.31 nM |  | 20 nM |  | 
13 | Cc1ccc2cccc(N3CCN(C4CCN(c5cccc6cccnc56)CC4)CC3)c2n1 [Example 10, 2-methyl-8-{4-[1-(8-quinolinyl)-4-piperidinyl]-1-piperazinyl}quinoline] | 0.83 nM |  | 3.28 nM |  | 
14 | Fc1cc(N2CCN(C3CCN(c4cc(Cl)cc5cccnc45)CC3)CC2)c2ncccc2c1 [Example 5, 8-{4-[1-(6-chloro-8-quinolinyl)-4-piperidinyl]-1-piperazinyl}-6-fluoroquinoline] | 106 nM |  |  |  | 
15 | c1cnc2c(N3CCC(N4CCN(c5cccc6[nH]ccc56)CC4)CC3)cccc2c1 [D, 8-{4-[4-(1H-indole-4-yl)-1-piperazinyl]-1-piperidinyl}quinoline] | 0.59 nM |  |  | 24 nM | 
16 | COc1ccc(N2CCN(C3CCN(c4cccc5cccnc45)CC3)CC2)c2ncccc12 [Example 14, 5-Methoxy-8-{4-[1-(8-quinolinyl)-4-piperidinyl]-1-piperazinyl}-quinoline] | 1.45 nM | 64.5 nM |  |  | 
17 | Fc1ccc(N2CCC(N3CCN(c4cccc5cccnc45)CC3)CC2)c2ncccc12 [C, 5-fluoro-8-{4-[4-(8-quinolinyl)-1-piperazinyl]-1-piperidinyl}-quinoline] | 0.24 nM |  | 6.85 nM |  | 
18 | Clc1cc(N2CCN(C3CCN(c4cccc5cccnc45)CC3)CC2)c2ncccc2c1 [Example 11, 6-chloro-8-{4-[1-(8-quinolinyl)-4-piperidinyl]-1-piperazinyl}quinoline] | 0.48 nM |  | 3.84 nM |  | 
19 | COc1cc(N2CCN(C3CCN(c4cccc5cccnc45)CC3)CC2)c2ncccc2c1 [A, 6-Methoxy-8-{4-[1-(8-quinolinyl)-4-piperidinyl]-1-piperazinyl}quinoline] | 0.4 nM | 3.86 nM |  |  | 
20 | COc1cc(N2CCN(C3CCN(c4ccc(F)c5c(OC)cc(C(F)(F)F)nc45)CC3)CC2)c2ncccc2c1 [N, 5-fluoro-4-methoxy-8-(4-(4-(6-methoxyquinolin-8-yl)piperazin-1-yl)piperidin-1-yl)-2-(trifluoromethyl)quinoline] |  |  |  | 9.2 nM | 2.02 nM
21 | Clc1cc(N2CCC(N3CCN(c4cccc5[nH]ccc45)CC3)CC2)c2ncccc2c1 [I, 6-Chloro-8-{4-[4-(1H-indole-4-yl)-1-piperazinyl]-1-piperidinyl}quinoline] |  |  |  |  | 40.8 nM
22 | Fc1cc(N2CCN(C3CCN(c4cccc5cccnc45)CC3)CC2)c2ncccc2c1 [B, 6-fluoro-8-{4-[1-(8-quinolinyl)-4-piperidinyl]-1-piperazinyl}quinoline] | 0.46 nM | 25 nM |  |  | 
23 | Clc1cc(N2CCC(N3CCN(c4cc(Cl)cc5cccnc45)CC3)CC2)c2ncccc2c1 [Example 4, 6-chloro-8-{4-[4-(6-chloro-8-quinolinyl)-1-piperazinyl]-1-piperidinyl}quinoline] | 500 nM |  |  |  | 
24 | c1cc2c(c(N3CCN(C4CCN(c5cccc6cccnc56)CC4)CC3)c1)OCCO2 [E, 8-{4-[4-(2,3-dihydro-1,4-benzo[1,4]dioxane-5-yl)-1-piperazinyl]-1-piperidinyl}quinoline] | 0.38 nM |  | 2.4 nM |  | 
25 | FC(F)(F)c1ccc(N2CCN(C3CCN(c4cccc5cccnc45)CC3)CC2)c2ncccc12 [Example 12, 8-{4-[1-(8-quinolinyl)-4-piperidinyl]-1-piperazinyl}-5-(trifluoromethyl)quinoline] | 3.04 nM | 35.5 nM |  |  | 
